The target in the assay is T1, Dopamine receptor D4 (Homo sapiens, UniProt P21917).
T1 construct: expressed in transfected cells
T1 sequence (P21917 1-419): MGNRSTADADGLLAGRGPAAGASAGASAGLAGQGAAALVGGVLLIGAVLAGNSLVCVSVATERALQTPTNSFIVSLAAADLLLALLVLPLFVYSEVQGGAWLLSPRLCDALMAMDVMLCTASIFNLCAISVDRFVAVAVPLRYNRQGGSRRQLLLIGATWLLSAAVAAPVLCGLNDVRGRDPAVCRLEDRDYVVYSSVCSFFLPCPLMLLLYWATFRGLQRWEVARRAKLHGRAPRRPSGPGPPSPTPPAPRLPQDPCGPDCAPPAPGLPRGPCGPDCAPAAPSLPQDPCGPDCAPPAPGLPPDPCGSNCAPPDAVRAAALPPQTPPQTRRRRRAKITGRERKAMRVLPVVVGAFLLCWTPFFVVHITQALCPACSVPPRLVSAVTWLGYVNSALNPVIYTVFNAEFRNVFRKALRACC
Kind of assay: PDSP secondary radioligand binding assay. Here is the method: Primary and secondary radioligand binding assays are performed. In general, the primary assay is run at very high ligand (compound) concentration as a broad screen to determine whether a compound binds to a particular receptor. If greater than 50% inhibition at 10 μM (high concentration of compound) at a particular receptor is determined, a secondary assay is performed on that receptor. Data from the secondary assay is the binding affinity (Ki value).
This assay is used to test binding to receptors such as the serotonin receptors: 5-HT1A, 5-HT1B, 5-HT1D, 5-HT1E, 5-HT2A, 5-HT2B, 5-HT2C, 5-HT3, 5-HT5A, 5-HT6 and 5-HT7. The protocol is adapted from Roth et al. J. Pharmacol. Exp. Ther. 1986, 238, 480-485 and Roth et al. J. Pharmacol. Exp. Ther. 1994, 268, 1403-1410. The assay buffer is Standard Binding Buffer (50 mM Tris-HCl, 10 mM MgCl2, 0.1 mM EDTA, pH 7.4). The membrane fraction source is transiently or stably transfected cell lines (e.g., HEK293, COS, CHO, NIH3T3).
A solution of the compound to be tested is prepared as a 1 mg/mL stock in Standard Binding Buffer or DMSO according to its solubility. A similar stock of a reference compound (positive control) is also prepared.
Radioligand (see Table 41) is diluted to five times the assay concentration (see Table 21) in Standard Binding Buffer. […]
The 250 μL reactions are incubated at room temperature and shielded from light (to prevent photolysis of light-sensitive ligands) for 1.5 hours, then harvested by rapid filtration onto Whatman GF/B glass fiber filters pre-soaked with 0.3% polyethyleneimine using a 96-well Brandel harvester. […] The tubes are capped, labeled, and counted by liquid scintillation counting. For higher throughput assays, bound radioactivity is harvested onto 0.3% polyethyleneimine-treated, 96-well filter mats using a 96-well Filtermate harvester. The filter mats are dried, then scintillant is melted onto the filters, and the radioactivity retained on the filters is counted in a Microbeta scintillation counter. […]

Counter-ions that a name gives are not always drawn.

This note sets out measurements from patent US8268854B2, “Aza-beta-carbolines and methods of using same” (The UWM Research Foundation, Inc., priority 2008, dated 2012).

The term Ki denotes a measure of affinity in units of concentration, obtained from inhibition or displacement. Lower therefore signals higher affinity. In turn, `CCCOc1cc2c(cn1)[nH]c1ccncc12` [Compound 2, 8-Propoxypyridino[4′,3′-5,4]pyrrolo[3,2-c]pyridine hydrochloride] displayed a Ki of 7.5 µM.
